The source of these data is paper PMC8980959, “Ceramide kinase regulates acute wound healing by suppressing 5-oxo-ETE biosynthesis and signaling via its receptor OXER1” (Journal of Lipid Research, 2022).

By IC50 is commonly meant the concentration that inhibits the measured activity by half. Higher therefore signals a need for much substance.

In assay [1] the target is T1, ceramide kinase (CERK), mouse (Mus musculus, UniProt Q8K4Q7).
T1 sequence (Q8K4Q7 1-531): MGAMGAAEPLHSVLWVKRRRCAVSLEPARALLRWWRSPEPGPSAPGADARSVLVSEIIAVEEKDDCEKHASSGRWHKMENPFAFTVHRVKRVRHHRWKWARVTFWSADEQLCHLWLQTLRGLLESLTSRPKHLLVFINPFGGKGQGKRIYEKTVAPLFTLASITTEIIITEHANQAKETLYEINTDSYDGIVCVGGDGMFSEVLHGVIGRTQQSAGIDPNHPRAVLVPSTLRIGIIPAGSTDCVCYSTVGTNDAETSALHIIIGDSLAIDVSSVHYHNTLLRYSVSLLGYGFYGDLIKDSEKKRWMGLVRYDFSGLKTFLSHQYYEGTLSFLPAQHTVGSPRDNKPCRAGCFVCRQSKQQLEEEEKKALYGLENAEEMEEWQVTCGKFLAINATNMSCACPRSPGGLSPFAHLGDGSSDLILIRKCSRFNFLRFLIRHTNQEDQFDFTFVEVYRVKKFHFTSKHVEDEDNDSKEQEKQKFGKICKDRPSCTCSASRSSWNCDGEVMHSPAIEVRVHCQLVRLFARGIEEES
The assay is described as follows: C1P product levels by UPLC ESI-MS/MS in mouse dermal fibroblasts, […]. In kind it is cell-based.

The target of assay [2] is T2, ceramide kinase (CERK), human (Homo sapiens, UniProt Q8TCT0).
T2 sequence (Q8TCT0 1-537): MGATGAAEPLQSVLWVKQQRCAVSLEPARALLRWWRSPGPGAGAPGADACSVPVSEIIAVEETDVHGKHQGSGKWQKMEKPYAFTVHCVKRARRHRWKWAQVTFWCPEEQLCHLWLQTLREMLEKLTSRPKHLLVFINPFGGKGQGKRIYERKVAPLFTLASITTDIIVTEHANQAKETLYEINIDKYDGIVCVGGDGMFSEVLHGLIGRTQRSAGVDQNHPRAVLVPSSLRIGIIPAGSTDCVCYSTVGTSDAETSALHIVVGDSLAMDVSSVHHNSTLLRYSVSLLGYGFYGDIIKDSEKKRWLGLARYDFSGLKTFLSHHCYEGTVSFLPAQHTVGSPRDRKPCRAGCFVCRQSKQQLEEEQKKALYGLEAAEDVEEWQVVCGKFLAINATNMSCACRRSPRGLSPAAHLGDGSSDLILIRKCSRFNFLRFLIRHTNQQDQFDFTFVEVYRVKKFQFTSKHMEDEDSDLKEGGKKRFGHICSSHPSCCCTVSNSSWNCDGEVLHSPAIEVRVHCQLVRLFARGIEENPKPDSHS
Briefly: in vitro CERK activity assay. It counts as biochemical.

Assay [3] has as its target T1, ceramide kinase (CERK), mouse. The assay is described as follows: in vitro CERK activity assay. In kind it is biochemical.

For `O=C(Nc1nc2ccc(NC(=O)C34CC5CC(CC(C5)C3)C4)cc2s1)c1ccccc1` [NVP-231, N-[2-(Benzoylamino)-6-benzothiazolyl]tricyclo[3.3.1.13,7]decane-1-carboxamide], the “C1P product levels by UPLC ESI-MS/MS in mouse dermal fibroblasts, 100 nM” value in assay [1] is recorded as “significantly reduced by SYR382141 in pDFs to an equivalent or greater extent as NVP-231”. For SYR382141, the IC50 worked out at 5 nM in assay [2] and 9 nM in assay [3].
